Test results: ChEMBL document CHEMBL1201862, “PubChem BioAssay data set” (2004)
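Briefly, cells in 96-well plates were exposed to five compound concentrations for 48 h, and endpoints were estimated by linear interpolation. Abbreviation: GI50, concentration required for 50% inhibition of growth.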 Active and inactive are the calls of the source. No stated cut-off is given here; in the data, active = GI50 up to about 1.1 µM and inactive = higher.

Key:
Assay in all cases: inhibition of tumour cell growth, NCI panel, 48 h
KM12 = system: KM12
CAKI-1 = system: CAKI-1
M19-MEL = system: M19-MEL
MOLT-4 = system: MOLT-4
SK-MEL-2 = system: SK-MEL-2
SK-OV-3 = system: SK-OV-3
DMS-273 = system: DMS-273
OVCAR-3 = system: OVCAR-3
M14 = system: M14
UACC-257 = system: UACC-257
ACHN = system: ACHN
HT-29 = system: HT-29
SNB-19 = system: SNB-19
TK-10 = system: TK-10
HOP-92 = system: HOP-92
SR = system: SR
OVCAR-4 = system: OVCAR-4

Measured: GI50

CSc1nc2nc(C(O)C(O)C(O)CO)cnc2c(=O)[nH]1 (stereo not given)
inactive: KM12 > 100 µM | CAKI-1 > 100 µM | M19-MEL > 100 µM | MOLT-4 > 100 µM | SK-MEL-2 > 100 µM | SK-OV-3 > 100 µM | DMS-273 > 100 µM | OVCAR-3 34 µM | M14 > 100 µM | UACC-257 > 100 µM | ACHN > 100 µM | HT-29 > 100 µM | SNB-19 > 100 µM | TK-10 > 100 µM

CCOC(=O)Cn1c(=O)n(C)c(=O)c2c1ncn2Cc1ccccc1
inactive: KM12 > 100 µM | CAKI-1 > 100 µM | M19-MEL > 100 µM | MOLT-4 > 100 µM | SK-MEL-2 > 100 µM | SK-OV-3 > 100 µM | DMS-273 > 100 µM | OVCAR-3 > 100 µM | HOP-92 > 100 µM | M14 > 100 µM | SR > 100 µM | ACHN > 100 µM | HT-29 > 100 µM | SNB-19 > 100 µM | TK-10 > 100 µM

CC(C)C(Sc1nc(-c2ccccc2)c(-c2ccccc2)[nH]1)C(=O)NN (stereo not given)
inactive: KM12 > 100 µM | CAKI-1 > 100 µM | M19-MEL > 100 µM | MOLT-4 49.7 µM | SK-MEL-2 > 100 µM | SK-OV-3 > 100 µM | DMS-273 > 100 µM | OVCAR-3 98.4 µM | HOP-92 73.1 µM | M14 > 100 µM | UACC-257 > 100 µM | OVCAR-4 > 100 µM | ACHN > 100 µM | HT-29 > 100 µM | SNB-19 > 100 µM | TK-10 92.5 µM

COc1ccc(/C=N\O[Si](C)(C)C(C)(C)C)cc1O[Si](C)(C)C(C)(C)C
inactive: KM12 17.6 µM | CAKI-1 25.1 µM | M19-MEL 18.2 µM | MOLT-4 17.4 µM | SK-MEL-2 16.5 µM | SK-OV-3 30.6 µM | DMS-273 19.3 µM | OVCAR-3 17.1 µM | HOP-92 22.6 µM | M14 20 µM | UACC-257 20.8 µM | OVCAR-4 19 µM | ACHN 18 µM | HT-29 17.7 µM | SNB-19 18.9 µM | TK-10 20.4 µM

O=C1CCN(CCC(F)(F)C(F)(F)C(F)(F)C(F)(F)F)C(=S)N1
inactive: KM12 > 100 µM | M19-MEL > 100 µM | MOLT-4 > 100 µM | SK-MEL-2 > 100 µM | DMS-273 > 100 µM | OVCAR-3 > 100 µM | M14 > 100 µM | SR > 100 µM | OVCAR-4 > 100 µM | ACHN > 100 µM | HT-29 > 100 µM | SNB-19 > 100 µM | TK-10 > 100 µM

BrC12c3ccccc3Sc3ccccc3C1(Br)c1ccccc12 (stereo not given)
inactive: KM12 19.9 µM | CAKI-1 26.1 µM | M19-MEL 35.2 µM | MOLT-4 10.7 µM | SK-MEL-2 15.8 µM | SK-OV-3 42.1 µM | DMS-273 36 µM | HOP-92 19.8 µM | M14 15.2 µM | UACC-257 22.3 µM | SR 11.1 µM | OVCAR-4 33.1 µM | ACHN 24.2 µM | HT-29 34.8 µM | SNB-19 32.7 µM | TK-10 35.6 µM

C=CCCc1cc(OC)ccc1CN(C)C(C)(C)CO
inactive: KM12 > 100 µM | CAKI-1 > 100 µM | M19-MEL > 100 µM | SK-MEL-2 > 100 µM | DMS-273 > 100 µM | OVCAR-3 > 100 µM | HOP-92 > 100 µM | UACC-257 > 100 µM | SR > 100 µM | OVCAR-4 > 100 µM | ACHN > 100 µM | HT-29 > 100 µM | SNB-19 > 100 µM | TK-10 > 100 µM

O=C(CCc1n[nH]c(=S)o1)Nc1ccccc1C(F)(F)F
inactive: KM12 > 100 µM | CAKI-1 > 100 µM | M19-MEL > 100 µM | MOLT-4 > 100 µM | SK-OV-3 > 100 µM | DMS-273 > 100 µM | OVCAR-3 > 100 µM | HOP-92 > 100 µM | M14 > 100 µM | UACC-257 > 100 µM | OVCAR-4 > 100 µM | ACHN > 100 µM | HT-29 > 100 µM | SNB-19 > 100 µM | TK-10 > 100 µM

CC(=O)NNc1nc(C)c(C(/C=C/c2ccc(Cl)cc2)=N/NC(=S)NN)s1
inactive: KM12 > 100 µM | CAKI-1 > 100 µM | M19-MEL > 100 µM | MOLT-4 > 100 µM | SK-MEL-2 > 100 µM | SK-OV-3 > 100 µM | DMS-273 > 100 µM | HOP-92 > 100 µM | M14 > 100 µM | UACC-257 > 100 µM | SR > 100 µM | OVCAR-4 > 100 µM | ACHN > 100 µM | HT-29 > 100 µM | SNB-19 > 100 µM | TK-10 > 100 µM

COC(=O)c1cc(C)c(C)c2c1NC(=O)CNC2=O
inactive: KM12 > 100 µM | CAKI-1 > 100 µM | M19-MEL > 100 µM | MOLT-4 > 100 µM | SK-MEL-2 > 100 µM | DMS-273 > 100 µM | OVCAR-3 > 100 µM | M14 > 100 µM | UACC-257 > 100 µM | SR > 100 µM | OVCAR-4 > 100 µM | ACHN > 100 µM | HT-29 > 100 µM

COC(=O)/C(=N\NC(N)=S)C(C(=O)OC)C(=O)C(=O)Nc1ccc(C)cc1 (stereo not given)
inactive: KM12 > 100 µM | CAKI-1 > 100 µM | M19-MEL > 100 µM | MOLT-4 > 100 µM | SK-MEL-2 > 100 µM | SK-OV-3 > 100 µM | DMS-273 > 100 µM | OVCAR-3 > 100 µM | M14 > 100 µM | UACC-257 > 100 µM | SR > 100 µM | OVCAR-4 > 100 µM | ACHN > 100 µM | HT-29 > 100 µM | SNB-19 > 100 µM | TK-10 > 100 µM

Sc1nnc(COc2ccc(Cl)cc2)[nH]1
inactive: KM12 > 100 µM | CAKI-1 > 100 µM | M19-MEL > 100 µM | MOLT-4 > 100 µM | SK-MEL-2 > 100 µM | SK-OV-3 > 100 µM | DMS-273 > 100 µM | OVCAR-3 > 100 µM | HOP-92 > 100 µM | M14 > 100 µM | UACC-257 > 100 µM | OVCAR-4 > 100 µM | ACHN > 100 µM | HT-29 > 100 µM | SNB-19 > 100 µM | TK-10 > 100 µM

CC1OC(=O)N(CCCC=C2SCCCS2)C1=O (stereo not given)
inactive: KM12 > 100 µM | M19-MEL > 100 µM | MOLT-4 > 100 µM | SK-MEL-2 > 100 µM | SK-OV-3 > 100 µM | DMS-273 > 100 µM | OVCAR-3 > 100 µM | HOP-92 > 100 µM | M14 > 100 µM | UACC-257 > 100 µM | OVCAR-4 > 100 µM | ACHN > 100 µM | HT-29 > 100 µM | SNB-19 > 100 µM | TK-10 > 100 µM
